Source: patent US10597388B2, “Pyridazinone herbicides” (FMC CORPORATION, priority 2014, dated 2020)

Experiments:
Assay in all cases: Test D controlled growth environment herbicide test, pre- and postemergence
Assay type in all cases: in vivo
[1] = tested on: bromegrass, downy (downy bromegrass, Bromus tectorum)
Procedure, shortened: (§1)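 Species sown in silt loam and sprayed preemergence, or grown in peat-based medium to 2–18 cm (1- to 4-leaf stage) and sprayed postemergence, with compounds in non-phytotoxic solvent plus surfactant. Visual injury scored versus controls after 14–21 d in a controlled environment, 0 (no effect) to 100 (complete control).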

[2] = tested on: buckwheat, wild (wild buckwheat, Polygonum convolvulus)
Procedure, shortened: as §1

[3] = tested on: canarygrass (Phalaris minor)
Procedure, shortened: as §1

[4] = tested on: chamomile (scentless chamomile, Matricaria inodora)
Procedure, shortened: as §1

[5] = tested on: chickweed (common chickweed, Stellaria media)
Procedure, shortened: as §1

[6] = tested on: deadnettle (henbit deadnettle, Lamium amplexicaule)
Procedure, shortened: as §1

[7] = tested on: field violet (Viola arvensis)
Procedure, shortened: as §1

[8] = tested on: foxtail, green (green foxtail, Setaria viridis)
Procedure, shortened: as §1

[9] = tested on: galium (catchweed bedstraw, Galium aparine)
Procedure, shortened: as §1

[10] = tested on: lambsquarters (Chenopodium album)
Procedure, shortened: as §1

[11] = tested on: oilseed rape (Brassica napus)
Procedure, shortened: as §1

[12] = tested on: ryegrass, Italian (Italian ryegrass, Lolium multiflorum)
Procedure, shortened: as §1

[13] = tested on: wheat, winter (winter wheat, Triticum aestivum)
Procedure, shortened: as §1

[14] = tested on: windgrass (Apera spica-venti)
Procedure, shortened: as §1

[15] = Postemergence, 31 g ai/ha, scale 0 to 100 (0 no effect, 100 complete control)
[16] = Postemergence, 125 g ai/ha, visual rating on scale 0 (no effect) to 100 (complete control), 14 to 21 d
[17] = Postemergence, 250 g ai/ha, scale 0 to 100 (0 no effect, 100 complete control)
[18] = Preemergence, 62 g ai/ha, scale 0 to 100 (0 no effect, 100 complete control)
[19] = Preemergence, 125 g ai/ha, scale 0 to 100 (0 no effect, 100 complete control)
[20] = Preemergence, 250 g ai/ha, scale 0 to 100, 0 no effect, 100 complete control
[21] = postemergence, 62 g ai/ha, scale 0 to 100, 0 no effect, 100 complete control

Question: For `Cc1cc2ccccc2c(-c2c(O)c(C)nn(C)c2=O)c1C` [Compound 34], which “Bromegrass, Downy plant response rating” value [1, 15] is on record?
Answer: 20

Question: And the “Plant response rating, Bromegrass, Downy” value [1, 16]?
Answer: 40

Question: What about the “Plant response rating, Bromegrass, Downy” value [1, 17] of the same compound?
Answer: 70

Question: And the “Plant response rating (scale of 0 to 100), Bromegrass, Downy” value ([1]; Preemergence, 31 g ai/ha)?
Answer: 0

Question: And the “Plant response rating, Bromegrass, Downy” value [1, 18]?
Answer: 50

Question: And the “Plant response rating, Bromegrass, Downy” value [1, 19]?
Answer: 50

Question: And the “Plant response rating, Bromegrass, Downy” value [1, 20]?
Answer: 80

Question: And the “Plant response rating, Bromegrass, Downy” value [1, 21]?
Answer: 30

Question: And the “Buckwheat, Wild plant response rating” value [2, 15]?
Answer: 100

Question: And the “Plant response rating, Buckwheat, Wild” value [2, 16]?
Answer: 100

Question: And the “Plant response rating, Buckwheat, Wild” value [2, 17]?
Answer: 100

Question: And the “Plant response rating (scale of 0 to 100), Buckwheat, Wild” value ([2]; Preemergence, 31 g ai/ha)?
Answer: 0

Question: And the “Plant response rating, Buckwheat, Wild” value [2, 18]?
Answer: 10

Question: What about the “Plant response rating, Buckwheat, Wild” value [2, 19] of the same compound?
Answer: 0

Question: What about the “Plant response rating, Buckwheat, Wild” value [2, 20] of the same compound?
Answer: 0

Question: What about the “Plant response rating, Buckwheat, Wild” value [2, 21] of the same compound?
Answer: 100

Question: What about the “Canarygrass plant response rating” value [3, 15] of the same compound?
Answer: 30

Question: And the “Plant response rating, Canarygrass” value [3, 16]?
Answer: 75

Question: What about the “Plant response rating, Canarygrass” value [3, 17] of the same compound?
Answer: 85

Question: And the “Plant response rating (scale of 0 to 100), Canarygrass” value ([3]; Preemergence, 31 g ai/ha)?
Answer: 20

Question: What about the “Plant response rating, Canarygrass” value [3, 18] of the same compound?
Answer: 50

Question: What about the “Plant response rating, Canarygrass” value [3, 19] of the same compound?
Answer: 90

Question: And the “Plant response rating, Canarygrass” value [3, 20]?
Answer: 95

Question: What about the “Plant response rating, Canarygrass” value [3, 21] of the same compound?
Answer: 65

Question: What about the “Chamomile plant response rating” value [4, 15] of the same compound?
Answer: 75

Question: What about the “Plant response rating, Chamomile” value [4, 16] of the same compound?
Answer: 100

Question: And the “Plant response rating, Chamomile” value [4, 17]?
Answer: 100

Question: What about the “Plant response rating, Chamomile” value [4, 21] of the same compound?
Answer: 80

Question: And the “Chickweed plant response rating” value [5, 15]?
Answer: 95

Question: What about the “Plant response rating, Chickweed” value [5, 16] of the same compound?
Answer: 100

Question: And the “Plant response rating, Chickweed” value [5, 17]?
Answer: 100

Question: And the “Plant response rating (scale of 0 to 100), Chickweed” value ([5]; Preemergence, 31 g ai/ha)?
Answer: 85

Question: And the “Plant response rating, Chickweed” value [5, 18]?
Answer: 95

Question: And the “Plant response rating, Chickweed” value [5, 19]?
Answer: 100

Question: What about the “Plant response rating, Chickweed” value [5, 20] of the same compound?
Answer: 100

Question: What about the “Plant response rating, Chickweed” value [5, 21] of the same compound?
Answer: 100

Question: And the “Deadnettle plant response rating” value [6, 15]?
Answer: 95

Question: And the “Plant response rating, Deadnettle” value [6, 16]?
Answer: 100

Question: And the “Plant response rating, Deadnettle” value [6, 17]?
Answer: 100

Question: And the “Plant response rating (scale of 0 to 100), Deadnettle” value ([6]; Preemergence, 31 g ai/ha)?
Answer: 0

Question: What about the “Plant response rating, Deadnettle” value [6, 18] of the same compound?
Answer: 40

Question: What about the “Plant response rating, Deadnettle” value [6, 19] of the same compound?
Answer: 50

Question: And the “Plant response rating, Deadnettle” value [6, 20]?
Answer: 95

Question: And the “Plant response rating, Deadnettle” value [6, 21]?
Answer: 100

Question: And the “Field Violet plant response rating” value [7, 15]?
Answer: 75

Question: What about the “Plant response rating, Field Violet” value [7, 16] of the same compound?
Answer: 95

Question: And the “Plant response rating, Field Violet” value [7, 17]?
Answer: 95

Question: What about the “Plant response rating (scale of 0 to 100), Field Violet” value ([7]; Preemergence, 31 g ai/ha) of the same compound?
Answer: 15

Question: And the “Plant response rating, Field Violet” value [7, 18]?
Answer: 25

Question: And the “Plant response rating, Field Violet” value [7, 19]?
Answer: 75

Question: And the “Plant response rating, Field Violet” value [7, 20]?
Answer: 95

Question: What about the “Plant response rating, Field Violet” value [7, 21] of the same compound?
Answer: 100

Question: What about the “Foxtail, Green plant response rating” value [8, 15] of the same compound?
Answer: 40

Question: And the “Plant response rating, Foxtail, Green” value [8, 16]?
Answer: 55

Question: And the “Plant response rating, Foxtail, Green” value [8, 17]?
Answer: 70

Question: And the “Plant response rating (scale of 0 to 100), Foxtail, Green” value ([8]; Preemergence, 31 g ai/ha)?
Answer: 55

Question: What about the “Plant response rating, Foxtail, Green” value [8, 18] of the same compound?
Answer: 60

Question: And the “Plant response rating, Foxtail, Green” value [8, 19]?
Answer: 60

Question: And the “Plant response rating, Foxtail, Green” value [8, 20]?
Answer: 75

Question: And the “Plant response rating, Foxtail, Green” value [8, 21]?
Answer: 45

Question: What about the “Galium plant response rating” value [9, 15] of the same compound?
Answer: 95

Question: What about the “Plant response rating, Galium” value [9, 16] of the same compound?
Answer: 100

Question: And the “Plant response rating, Galium” value [9, 17]?
Answer: 100

Question: What about the “Plant response rating (scale of 0 to 100), Galium” value ([9]; Preemergence, 31 g ai/ha) of the same compound?
Answer: 0

Question: And the “Plant response rating, Galium” value [9, 18]?
Answer: 35

Question: What about the “Plant response rating, Galium” value [9, 19] of the same compound?
Answer: 80

Question: What about the “Plant response rating, Galium” value [9, 20] of the same compound?
Answer: 85

Question: And the “Plant response rating, Galium” value [9, 21]?
Answer: 100

Question: What about the “Lambsquarters plant response rating” value [10, 15] of the same compound?
Answer: 90

Question: And the “Plant response rating, Lambsquarters” value [10, 16]?
Answer: 100

Question: And the “Plant response rating, Lambsquarters” value [10, 17]?
Answer: 100

Question: What about the “Plant response rating (scale of 0 to 100), Lambsquarters” value ([10]; Preemergence, 31 g ai/ha) of the same compound?
Answer: 60

Question: And the “Plant response rating, Lambsquarters” value [10, 18]?
Answer: 60

Question: And the “Plant response rating, Lambsquarters” value [10, 19]?
Answer: 95

Question: And the “Plant response rating, Lambsquarters” value [10, 20]?
Answer: 95

Question: And the “Plant response rating, Lambsquarters” value [10, 21]?
Answer: 95

Question: What about the “Oilseed Rape plant response rating” value [11, 15] of the same compound?
Answer: 65

Question: What about the “Plant response rating, Oilseed Rape” value [11, 16] of the same compound?
Answer: 75

Question: What about the “Plant response rating, Oilseed Rape” value [11, 17] of the same compound?
Answer: 90

Question: What about the “Plant response rating (scale of 0 to 100), Oilseed Rape” value ([11]; Preemergence, 31 g ai/ha) of the same compound?
Answer: 10

Question: And the “Plant response rating, Oilseed Rape” value [11, 18]?
Answer: 55

Question: What about the “Plant response rating, Oilseed Rape” value [11, 19] of the same compound?
Answer: 50

Question: What about the “Plant response rating, Oilseed Rape” value [11, 20] of the same compound?
Answer: 85

Question: What about the “Plant response rating, Oilseed Rape” value [11, 21] of the same compound?
Answer: 70

Question: What about the “Ryegrass, Italian plant response rating” value [12, 15] of the same compound?
Answer: 90

Question: And the “Plant response rating, Ryegrass, Italian” value [12, 16]?
Answer: 95

Question: What about the “Plant response rating, Ryegrass, Italian” value [12, 17] of the same compound?
Answer: 95

Question: And the “Plant response rating (scale of 0 to 100), Ryegrass, Italian” value ([12]; Preemergence, 31 g ai/ha)?
Answer: 75

Question: And the “Plant response rating, Ryegrass, Italian” value [12, 18]?
Answer: 95

Question: And the “Plant response rating, Ryegrass, Italian” value [12, 19]?
Answer: 100

Question: And the “Plant response rating, Ryegrass, Italian” value [12, 20]?
Answer: 100

Question: What about the “Plant response rating, Ryegrass, Italian” value [12, 21] of the same compound?
Answer: 95

Question: And the “Wheat, Winter plant response rating” value [13, 15]?
Answer: 5

Question: And the “Plant response rating, Wheat, Winter” value [13, 16]?
Answer: 15

Question: What about the “Plant response rating, Wheat, Winter” value [13, 17] of the same compound?
Answer: 25

Question: And the “Plant response rating (scale of 0 to 100), Wheat, Winter” value ([13]; Preemergence, 31 g ai/ha)?
Answer: 0

Question: And the “Plant response rating, Wheat, Winter” value [13, 18]?
Answer: 0

Question: And the “Plant response rating, Wheat, Winter” value [13, 19]?
Answer: 25

Question: What about the “Plant response rating, Wheat, Winter” value [13, 20] of the same compound?
Answer: 40

Question: And the “Plant response rating, Wheat, Winter” value [13, 21]?
Answer: 25

Question: And the “Windgrass plant response rating” value [14, 15]?
Answer: 40

Question: What about the “Plant response rating, Windgrass” value [14, 16] of the same compound?
Answer: 65

Question: What about the “Plant response rating, Windgrass” value [14, 17] of the same compound?
Answer: 75

Question: What about the “Plant response rating (scale of 0 to 100), Windgrass” value ([14]; Preemergence, 31 g ai/ha) of the same compound?
Answer: 15

Question: And the “Plant response rating, Windgrass” value [14, 18]?
Answer: 25

Question: And the “Plant response rating, Windgrass” value [14, 19]?
Answer: 55

Question: And the “Plant response rating, Windgrass” value [14, 20]?
Answer: 70

Question: What about the “Plant response rating, Windgrass” value [14, 21] of the same compound?
Answer: 50
